Laboratory results: US20240041870A1, “METHODS OF TREATING SYSTEMIC LUPUS ERYTHEMATOSUS” (AbbVie Inc., priority 2022, published 2024)

Legend:
[1] = test system: subjects with moderately to severely active SLE; test: Phase 2 Study M19-130: safety and efficacy of upadacitinib vs placebo, 48-week treatment period; format: in vivo, human
Excerpt: This was a Phase 2 Study (M19-130) to Investigate the Safety and Efficacy of Upadacitinib Given in Subjects with Moderately to Severely Active Systemic Lupus Erythematosus.
Subjects must have had active SLE by SLEDAI-2K ≥6 as reported and independently adjudicated (clinical score ≥4, excluding lupus headache and/or organic brain syndrome) at Screening and Baseline. If 4 points of the required entry points were for arthritis, there must also have been a minimum of 3 tender and 3 swollen joints.
The primary efficacy endpoint was achievement of SLE Responder Index (SRI)-4 and steroid dose ≤10 mg prednisone equivalent once a day (QD) at Week 24. SLE Responder Index (SRI)-4 is defined as ≥4-point reduction in Systemic Lupus Erythematosus Disease Activity Index 2000 (SLEDAI-2K) score without worsening of the overall condition (no worsening in Physician's Global Assessment [PhGA], <0.3 point increase) or the development of significant disease activity in new organ systems (no new British Isles Lupus Assessment Group ([BILAG]) A or >1 new BILAG B).
The following secondary efficacy endpoints were evaluated: • 1. Achievement of SRI-4 at Week 24 • 2. Achievement of BILAG-Based Combined Lupus Assessment (BICLA) response at Week 24 • 3. Achievement of Lupus Low Disease Activity State (LLDAS) at Week 24 • 4. Steroid burden, assessed as change from Baseline at Week 24 • 5. Number of mild, moderate, or severe flares per patient-year (respectively and overall) by Safety of Estrogens in Lupus Erythematosus National Assessment (SELENA) SLEDAI Flare Index (SFI), assessed by number and types of flare per subject through Week 24
The following additional efficacy endpoints were evaluated at all visits unless otherwise noted: • 1. Achievement of SRI-4 • 2. Achievement of SRI-5, -6, -7, -8 and steroid dose ≤10 mg prednisone equivalent QD at Weeks 24 and 48 • 3. Achievement of SRI-5, -6, -7, -8 • 4. Achievement of BICLA response • 5. Achievement of LLDAS • 6. Achievement of ≥4-point decrease in SLEDAI-2K from Baseline • 7. Steroid burden, assessed as change from Baseline • 8. Number of mild, moderate, or severe flares per patient-year (respectively and overall) by SELENA SFI, assessed by number and types of flare per subject through Week 24 and Week 48 • 9. Time to first flare by SELENA SFI after first study drug administration up to Week 24 and Week 48 • 10. Achievement of 50% reduction of tender or swollen lupus joints defined as ≥50% decrease in either tender or swollen joints (of those starting with total ≥6 affected joints) • 11. Achievement of 50% reduction in Cutaneous Lupus Erythematosus Disease Area and Severity Index (CLASI) activity score (of those starting with CLASI ≥10) • 12. Change in SLEDAI-2K from Baseline • 13. Change in BILAG from Baseline • 14. Change in PhGA from Baseline • 15. Change in Patient Global Assessment (PtGA) from Baseline • 16. Change from Baseline in Functional Assessment of Chronic Illness Therapy (FACIT)—Fatigue at Weeks 2, 12, 24, and 48 • 17. Change from Baseline in 36-Item Short Form Health Survey (SF-36) at Weeks 2, 12, 24, and 48 • 18. Change from Baseline Lupus Quality of Life questionnaire (LupusQoL) at Weeks 2, 12, 24, and 48 • 19. Change from Baseline Pain Numerical Rating Scale (NRS) at Weeks 2, 12, 24, and 48
The study was designed to investigate the safety and efficacy of upadacitinib in subjects with moderately to severely active SLE despite standard of care therapy. The study duration included a 42-day maximum screening period, a 48-week randomized, placebo-controlled, double-blind, parallel-group treatment period, and a 30-day follow-up phone call. The Week 24 Primary Analysis was performed when all subjects completed the Week 24 visit or discontinued the study. Sites and subjects remained blinded throughout the study. The study team remained blinded until the Week 24 Primary Analysis. […]

[2] = Upadacitinib pharmacokinetics in Study M19-130 (model-estimated steady-state exposure); format: in vivo, human; details: 30 mg QD; subjects with SLE; plasma
Excerpt: Upadacitinib plasma concentrations were summarized at each sampling time point using descriptive statistics. A mixed-effects modeling approach may have been used to estimate the population central value and the empirical Bayesian estimates of the individual values for upadacitinib oral clearance (CL/F) and volume of distribution (Vss/F). Additional parameters and pharmacokinetic (PK)/pharmacodynamic relationships may have been estimated if useful in the interpretation of the data.
The model-estimated median ([…]) steady-state (SS) Cavg in subjects with SLE was 28.4 (19.1-46.6) ng/mL for upadacitinib 30 mg QD.

[3] = 30 mg QD oral, N = 62, Week 24 interim analysis (Example 1)
[4] = 30 mg QD oral, N = 62, Week 24 interim analysis (Example 1), listed as UPA
[5] = 30 mg QD oral, N = 62, final database (Example 2)
[6] = 30 mg QD oral, N = 62, full analysis set, Week 24 interim analysis (Example 1)
[7] = 30 mg QD oral, final database (Example 2)
[8] = 30 mg QD vs PBO (N = 75), stratum-adjusted, final database (Example 2)
[9] = 30 mg QD, N = 62, subject disposition, Week 24 interim analysis

SMILES: CC[C@@H]1CN(C(=O)NCC(F)(F)F)C[C@@H]1c1cnc2cnc3[nH]ccc3n12 [Upadacitinib, (3S,4R)-3-ethyl-4-(3H-imidazo[1,2-a]pyrrolo[2,3-e]pyrazin-8-yl)-N-(2,2,2-trifluoroethyl)pyrrolidine-1-carboxamide]
- Prednisone Equivalent Steroid Dose; Week 48; LS Mean Change (SE) ([1]; 30 mg QD oral, N = 38, final database (Example 2)): −1.20 (0.524)
- Prednisone Equivalent Steroid Dose at Week 24; LS Mean Change (SE) ([1]; 30 mg QD oral, N = 48, change from Baseline, Week 24 interim analysis (Example 1)): −0.64 (0.486)
- Prednisone Equivalent Steroid Dose; Week 24; LS Mean Change (SE) ([1]; 30 mg QD oral, N = 48, final database (Example 2)): −0.62 (0.496)
- BICLA at Week 24; % [1, 3]: 58.1%
- BICLA at Week 24; n [1, 3]: 36 n
- Flares per SELENA SLEDAI Flare Index through Week 24; Any flares [1, 3]: 1.73 Events/PY
- Flares per SELENA SLEDAI Flare Index through Week 24; Mild/Moderate [1, 3]: 1.66 Events/PY
- Flares per SELENA SLEDAI Flare Index through Week 24; Severe [1, 3]: 0.07 Events/PY
- LLDAS at Week 24; % [1, 3]: (43.5) %
- LLDAS at Week 24; n [1, 3]: 27 n
- SRI-4 at Week 24; % [1, 3]: 53.6%
- SRI-4 at Week 24; n [1, 3]: 33 n
- BICLA at Week 24; % [1, 4]: (58.1) %
- SRI-4 at Week 24; % [1, 4]: (53.2) %
- BICLA; Week 24; % [1, 5]: (58.1) %
- BICLA; Week 24; n [1, 5]: 36 n
- BICLA; Week 48; % [1, 5]: (53.2) %
- BICLA; Week 48; n [1, 5]: 33 n
- Flares per SELENA SLEDAI Flare Index Through Week 48; Any flares [1, 5]: 2.04 Events/PY
- Flares per SELENA SLEDAI Flare Index Through Week 48; Mild/Moderate [1, 5]: 1.88 Events/PY
- Flares per SELENA SLEDAI Flare Index Through Week 48; Severe [1, 5]: 0.16 Events/PY
- Flares per SELENA SLEDAI Flare Index through Week 24; Any flares [1, 5]: 1.87 Events/PY
- Flares per SELENA SLEDAI Flare Index through Week 24; Mild/Moderate [1, 5]: 1.76 Events/PY
- Flares per SELENA SLEDAI Flare Index through Week 24; Severe [1, 5]: 0.10 Events/PY
- LLDAS; Week 24; % [1, 5]: (45.2) %
- LLDAS; Week 24; n [1, 5]: 28 n
- LLDAS; Week 48; % [1, 5]: (50.0) %
- LLDAS; Week 48; n [1, 5]: 31 n
- SRI-4; Week 24; % [1, 5]: (56.5) %
- SRI-4; Week 24; n [1, 5]: 35 n
- SRI-4; Week 48; % [1, 5]: 45.2%
- SRI-4; Week 48; n [1, 5]: 28 n
- SRI-4 and Prednisone Equivalent Steroid Dose ≤10 mg; Week 24; % [1, 5]: (54.8) %
- SRI-4 and Prednisone Equivalent Steroid Dose ≤10 mg; Week 48; % [1, 5]: (43.5) %
- SRI-4 and Prednisone Equivalent Steroid Dose ≤10 mg; Week 48; n [1, 5]: 27 n
- SRI-4; Week 48; % ([1]; 30 mg QD oral, N = 62, final database (Example 2), listed as UPA): (45.2) %
- SRI-4 and Prednisone Equivalent Steroid Dose ≤10 mg at Week 24; % [1, 6]: 51.6%
- SRI-4 and Prednisone Equivalent Steroid Dose ≤10 mg at Week 24; n [1, 6]: 32 n
- SRI-4 and Prednisone Equivalent Steroid Dose ≤10 mg at Week 24; % ([1]; 30 mg QD oral, N = 62, full analysis set, Week 24 interim analysis (Example 1), listed as UPA): (51.6) %
- SRI-4 and Prednisone Equivalent Steroid Dose ≤10 mg; Week 24; n ([1]; 30 mg QD oral, N = 62, full analysis set, final database (Example 2)): 34 n
- 50% Reduction of Tender or Swollen Lupus Joints among Subjects with Total >=6 Affected Joints; Week 24; % [1, 7]: (67.8) %
- 50% Reduction of Tender or Swollen Lupus Joints among Subjects with Total >=6 Affected Joints; Week 24; n [1, 7]: 40/59
- 50% Reduction of Tender or Swollen Lupus Joints among Subjects with Total >=6 Affected Joints; Week 48; % [1, 7]: (57.6) %
- 50% Reduction of Tender or Swollen Lupus Joints among Subjects with Total >=6 Affected Joints; Week 48; n [1, 7]: 34/59
- BICLA; Week 48; Adj. Diff (−PBO) [95% CI] [1, 8]: 30.8
- SRI-4; Week 48; Adj. Diff (−PBO) [95% CI] [1, 8]: 30.4
- SRI-4 and Steroid Dose ≤10 mg prednisone equivalent QD; stratum-adjusted treatment difference ([1]; 30 mg QD vs placebo, Week 24, Example 1): 14.0%
- Discontinued from the Study Drug (All Reasons): Adverse event; % [1, 9]: 9.7%
- Discontinued from the Study Drug (All Reasons): Adverse event; n [1, 9]: 6 n
- Discontinued from the Study Drug (Primary Reasons): Adverse event; % [1, 9]: 8.1%
- Discontinued from the Study Drug (Primary Reasons): Adverse event; n [1, 9]: 5 n
- Withdrawal from the Study (All Reasons): Adverse event; % [1, 9]: 6.5%
- Withdrawal from the Study (All Reasons): Adverse event; n [1, 9]: 4 n
- Withdrawal from the Study (Primary Reasons): Adverse event; % [1, 9]: 4.8%
- Withdrawal from the Study (Primary Reasons): Adverse event; n [1, 9]: 3 n
- response rate in BICLA after Week 24 ([1]; 30 mg, Week 24 to Week 48): generally maintained
- response rate in SRI-4 after Week 24 ([1]; 30 mg, Week 24 to Week 48): generally maintained
- flare compared to placebo ([1]; 30 mg, over 48 weeks): reductions in flare
- time-to-first flare compared to placebo ([1]; 30 mg, over 48 weeks): delays in time-to-first flare
- LLDAS at Week 24 compared with placebo ([1]; 30 mg, p<0.001, Example 1): greater efficacy than placebo
- flare rate through Week 24 compared with placebo ([1]; 30 mg, p=0.075, Example 1): lower flare rate
- response rate for achievement of BICLA at Week 48 ([1]; 30 mg, text of Example 2): 53.2%
- model-estimated median (prediction interval) steady-state (SS) Cavg [2]: 28.4 (19.1-46.6) ng/mL
